Like-named read-outs stand apart in the source and are kept apart here. Blank lines part the entries; values can stand above or below the compound they belong to.
System: T1, LipS.g
T1 construct: native extracellular enzyme purified from culture supernatant (heat, ammonium sulfate, Sephadex S-200); about 50 kDa SDS-PAGE, 53,262 Da MALDI-TOF
Experiment: pH-stat titrimetry, Lineweaver-Burk
Type: biochemical, Streptomyces gobitricini
Details: pH 9.0, 50°C, triglyceride emulsion, apparent Km
Description: pH-stat titrimetry, Lineweaver-Burk on LipS.g

Km (read-out: TC18): 6.45 ± 0.289 mM
SMILES: CCCCCCCC/C=C\CCCCCCCC(=O)OCC(COC(=O)CCCCCCC/C=C\CCCCCCCC)OC(=O)CCCCCCC/C=C\CCCCCCCC [TC18, triolein]

Km (read-out: Lipase activity (%) / TC4): 26.7 ± 0.063 mM
SMILES: CCCC(=O)OCC(COC(=O)CCC)OC(=O)CCC [TC4, Tributyrin]

Km (read-out: TC8): 13.22 ± 0.106 mM
SMILES: CCCCCCCC(=O)OCC(COC(=O)CCCCCCC)OC(=O)CCCCCCC [TC8, trioctanoin]
